Measured values from patent US11000555B2, “Method for preparing a limax compound and therapeutic use thereof” (GUANGXI JIUFU BIOTECHNOLOGY CO., LTD, priority 2017, dated 2021).
Marks after values point to notes of the source that are not given here.

Assays:
[1] = system: mice; test: Physical dependence test: induced withdrawal test for the mice; conditions: mouse, in vivo
Protocol: The daily doses were 25, 50, 75, 100, 125, 150 mg/kg according to the dose increasing principle, increased day by day, reached 150 mg/kg on day 6 which was adopted the same on day 7. The compound group was administered (ig) twice daily (8:00 am, 8:00 pm) at daily doses of 0.6, 1.2, 1.8, 2.4, 3.0, 3.6 g/kg. The dose increased every day from 0.6 g/kg to 3.6 g/kg on day 6 which was adopted the same on day 7. The negative control group was given (ig) the same volume of vegetable oil every day at the same time and for the same times as the compound group. On day 7, naloxone (8 mg/kg, ip) was given to each group of mice to induce withdrawal. The jump reaction within 30 min and weight change one hour before and after inducement were observed. Weight loss value=weight before inducement−weight after inducement.

[2] = Solubility; format: physicochemical
[3] = system: morphine-dependent mice; test: Therapeutic effect on naloxone-induced withdrawal symptoms of morphine-dependent mice; format: in vivo, Kunming mice; conditions: for Times of jumping reactions of mice: naloxone 8.0 mg/kg ip
Protocol: The model of morphine-dependent mice was replicated by the dose-increasing method. […] Group (1) was a blank control group, injected subcutaneously (sc) with normal saline (0.2 ml/10 g), and groups (2)˜(5) were used to replicate the model of morphine-dependent mice by the dose-increasing method.
The administration continued for 3 days for each group. Mice were free to drink and eat. Naloxone (8.0 mg/kg, ip) was given 1 h after administrations on d1 and d3 during the treatment to induce withdrawal symptoms, and jumping reaction in 30 min and body weights before and after the inducement were observed.

[4] = system: mice; test: Hot plate test of analgesic effect; format: in vivo, Kunming mice; conditions: for Pain threshold / Pain threshold before administration: hot plate 55° C.; for Pain threshold before administration: base line
Protocol: Kunming mice, female, were selected. And a selection among them was conducted prior to the test. The hot plate was adjusted to 55° C.±0.5° C., the female mice were placed on the hot plate, and the duration (in seconds) required from placing the mice on the hot plate until the mice licked their feet as the normal pain threshold of the mice. All those who licked their feet within 5 s or after 30 s and jumped were abandoned. Forty qualified mice were selected and randomly divided into 4 groups: a blank control group, a low dose Compound group, a high dose Compound group, and a positive control group, 10 mice per group. The normal pain threshold of each mouse was measured repeatedly, and the average of two measurements was taken as the pre-administration pain threshold of the mouse. Each group was then administered (at doses and by delivery routes as above), 0.2 ml per 10 g body weight. The pain threshold of each group was measured 60 min and 120 min after administration. If a mouse remained unresponsive for more than 60 seconds on the hot plate, its pain threshold was calculated as 60 seconds.

[5] = system: mice; test: Inducing the mice to sleep by a subthreshold dose of pentobarbital sodium; format: in vivo, Kunming mice; conditions: for Number of the mice showing disappearance of righting reflex: pentobarbital sodium 30 mg/kg ip, n = 20
Protocol: Eighty Kunming mice, half males and half females, were fasted for 12 h but free to drink water. The mice were randomly divided into four groups: a blank control group, a low does Compound group (0.4 g/kg, ig), a high dose Compound group (0.8 g/kg, ig) and a positive drug control group (Estazolam, 2 mg/kg). each group of mice was administered according to the above doses (ig), and the blank control group was given the same volume of normal saline. Forty-five minutes later, each mouse was given (ip) 30 mg/kg pentobarbital sodium, and the number of mice falling asleep within 15 min was recorded by taking the absence of righting reflex more than 1 min as the indicator of falling asleep.

[6] = system: mice; test: Amphetamine-induced hyperexcitability test of mice; format: in vivo, Kunming mice
Protocol: Forty Kunming mice, half males and half females, were fasted for 12 h but free to drink water. The mice were randomly divided into four groups: a blank control group, a low does Compound group (0.4 g/kg, ig), a high dose Compound group (0.8 g/kg, ig) and a positive drug control group (Estazolam, 2 mg/kg). The mice were placed into the YLS-1A multifunctional recorder for spontaneous activities of small animals. After 5 minutes of adaptation, the number of the mice's spontaneous activities before administration were recorded, and the recording lasted for 10 minutes. The room was kept quiet during recording, at a room temperature of 20-24° C. After this, each group of mice was administered according to the above doses, and the blank control group was given the same volume of normal saline (ig). Thirty minutes after administration, each mouse was given an intraperitoneal injection of amphetamine (8 mg/kg). Fifteen minutes later, the mice were placed in the recorder to observe and record the number of activities within 10 min.

[7] = system: mice; test: Oral acute toxicity test of mice (maximum dose method); format: in vivo, Kunming mice; conditions: for Weight after dosing / Weight change: 14 days observation; for Weight before dosing: test group
Protocol: The test group was given 10% the compound, 0.3 ml/10 g per dose, and the control group was given the same volume of vegetable oil. Each group was administered (ig) twice a day at 8:00 and 18:00, respectively, and fasting was completed three hours after the administration (ig). All the mice received the same volume of 0.3 ml/10 g per dose, amounting to 6 g/kg BW over 24 hours. The mice were given free access to water and food after administration. The body weight, food intake, water intake, general physiological indicators, behaviors and activities, psychological status and survival status were recorded for 14 days in consecutive, 3 times a day, after several times of observation within the 24 hours that followed the administration.

[8] = Female, 6 g/kg BW over 24 hours ig
[9] = Male, 6 g/kg BW over 24 hours ig

SMILES: CC1(C)O[C@H]2CC[C@@]3(C)[C@@H]([C@@H](O)[C@H](O)[C@@H]3[C@@](C)(O)CC[C@@H]3OC(C)(C)[C@H]4CC[C@]3(C)O4)[C@]2(C)CC[C@H]1O [the compound, limaxol A]
- Behaviour of mice after administration [1]: quiet without tail erecting reaction or excitatory movement
- Withdrawal symptoms after administration of the compound, mice [1]: no obvious withdrawal symptoms
- solubility ([2]; in acid and alkali): insoluble
- solubility ([2]; in ethanol, ethyl acetate, trichloromethane (hot)): soluble
- solubility ([2]; in methanol, acetone): easily soluble
- solubility ([2]; in trichloromethane (cold)): slightly soluble
- solubility ([2]; in water): insoluble
- Numbers of jumping reactions of mice (mice of n = 10) ([3]; d 1, high dose 0.8 g/kg ig): 10
- Numbers of jumping reactions of mice, percentage ([3]; d 1, high dose 0.8 g/kg ig): 100%
- Weight change: body weights of mice before and after induced withdrawal ([3]; d 1, high dose 0.8 g/kg ig): 0.26 ± 0.21 g
- Times of jumping reactions of mice ([3]; d 1, high dose 0.8 g/kg ig): 35.0 ± 12.28 per 30 min
- Numbers of jumping reactions of mice (mice of n = 10) ([3]; d 1, low dose 0.4 g/kg ig): 10
- Numbers of jumping reactions of mice, percentage ([3]; d 1, low dose 0.4 g/kg ig): 100%
- Weight change: body weights of mice before and after induced withdrawal ([3]; d 1, low dose 0.4 g/kg ig): 0.18 ± 0.13 g
- Times of jumping reactions of mice ([3]; d 1, low dose 0.4 g/kg ig): 13.5 ± 10.29 per 30 min
- Numbers of jumping reactions of mice (mice of n = 10) ([3]; d 3, high dose 0.8 g/kg ig): 10
- Numbers of jumping reactions of mice, percentage ([3]; d 3, high dose 0.8 g/kg ig): 100%
- Weight change: body weights of mice before and after induced withdrawal ([3]; d 3, high dose 0.8 g/kg ig): 0.43 ± 0.23 g
- Times of jumping reactions of mice ([3]; d 3, high dose 0.8 g/kg ig): 8.5 ± 2.68 per 30 min
- Numbers of jumping reactions of mice (mice of n = 10) ([3]; d 3, low dose 0.4 g/kg ig): 10
- Numbers of jumping reactions of mice, percentage ([3]; d 3, low dose 0.4 g/kg ig): 100%
- Weight change: body weights of mice before and after induced withdrawal ([3]; d 3, low dose 0.4 g/kg ig): 0.36 ± 0.28 g
- Times of jumping reactions of mice ([3]; d 3, low dose 0.4 g/kg ig): 6.2 ± 5.86 per 30 min
- Effect on jumping reaction during induced withdrawal ([3]; ig, 0.4 and 0.8 g/kg): inhibited jumping reaction
- Effect on weight loss of the morphine-dependent mice ([3]; ig, 0.4 and 0.8 g/kg): inhibited weight loss
- Pain threshold ([4]; 60 min, high dose 0.8 g/kg ig): 27.0 ± 11.32 s
- Pain threshold ([4]; 60 min, low dose 0.4 g/kg ig): 25.4 ± 10.10 s
- Pain threshold ([4]; 120 min, high dose 0.8 g/kg ig): 25.9 ± 12.52 s
- Pain threshold ([4]; 120 min, low dose 0.4 g/kg ig): 29.3 ± 13.41 s
- Pain threshold before administration ([4]; high dose group): 24.3 ± 5.51 s
- Pain threshold before administration ([4]; low dose group): 23.7 ± 4.95 s
- Analgesic effect, hot plate test ([4]; single administration 0.4, 0.8 g/kg, ig): no obvious analgesic effect
- Effect on number of mice that fell asleep, sub-threshold pentobarbital sodium ([5]; 0.4, 0.8 g/kg, ig): increase the number of mice that fell asleep
- Number of the mice showing disappearance of righting reflex ([5]; high dose 0.8 g/kg ig): 8 per group
- Number of the mice showing disappearance of righting reflex ([5]; low dose 0.4 g/kg ig): 11 per group
- Effect on excitability induced by amphetamine ([6]; 0.4, 0.8 g/kg, ig): inhibit the increase of excitability induced by morphine and amphetamine
- Number of activities, amphetamine-induced excitability ([6]; After administration, high dose 0.8 g/kg ig, amphetamine 8 mg/kg): 132.6 ± 26.26**^Δ▴▴ Times per min
- Number of activities, amphetamine-induced excitability ([6]; After administration, low dose 0.4 g/kg ig, amphetamine 8 mg/kg): 130.6 ± 32.11**^Δ▴ Times per min
- Number of activities, amphetamine-induced excitability ([6]; Before administration, high dose group): 197.4 ± 39.30 Times per min
- Number of activities, amphetamine-induced excitability ([6]; Before administration, low dose group): 192.0 ± 45.06 Times per min
- Toxic reaction ([7]; 6 g/kg BW over 24 hours ig, 14 days of observation): no toxic reaction occurred
- Weight after dosing [7, 8]: 24.99 ± 1.59 g
- Weight change [7, 8]: 4.06 ± 2.34 g
- Weight before dosing ([7]; Female): 20.93 ± 1.61 g
- Weight after dosing [7, 9]: 26.60 ± 0.87 g
- Weight change [7, 9]: 6.13 ± 1.46 g
- Weight before dosing ([7]; Male): 20.73 ± 1.79 g
- Visual observation of heart, liver, spleen, lung, kidney ([7]; after putting to death, 14 days): no abnormality was found
- Maximum dose as multiple of the daily dose per the same body weight for a human adult ([7]; human adult dose 0.02 g/kg): 300 times
- Maximum dose given the mice ([7]; ig, twice within 24 hours, no death): 6 g/kg
- LD50 ([7]; mouse, in vivo, po): could not be detected
